Experimental data published in ChEMBL document CHEMBL1146901, “Synthesis and pharmacological study of novel pyrido-quinazolone analogues as anti-fungal, antibacterial, and anticancer agents” (Bioorg Med Chem Lett, 2006).

Experiments:
Aspergillus niger [1] = assay: Antifungal activity against Aspergillus niger at 20 ug/ml by agar plate method; format: functional
MCF7 [2] = assay: Cytotoxicity against human MCF7 cells; format: functional, cell-based
Staphylococcus aureus = assay: Antibacterial activity against Staphylococcus aureus by disk diffusion method; format: functional
Aspergillus flavus [3] = assay: Antifungal activity against Aspergillus flavus at 20 ug/ml by agar plate method; format: functional
Aspergillus niger [4] = assay: Antifungal activity against Aspergillus niger at 100 ug/ml by agar plate method; format: functional
Aspergillus niger [5] = assay: Antifungal activity against Aspergillus niger at 50 ug/ml by agar plate method; format: functional
Aspergillus flavus [6] = assay: Antifungal activity against Aspergillus flavus at 10 ug/ml by agar plate method; format: functional
Aspergillus flavus [7] = assay: Antifungal activity against Aspergillus flavus at 100 ug/ml by agar plate method; format: functional
MCF7 [8] = assay: Cytotoxicity against human MCF7 cells assessed as decrease in number of cells relative to control; format: functional, cell-based
Aspergillus flavus [9] = assay: Antifungal activity against Aspergillus flavus at 50 ug/ml by agar plate method; format: functional
Aspergillus niger [10] = assay: Antifungal activity against Aspergillus niger at 10 ug/ml by agar plate method; format: functional
Pseudomonas aeruginosa = assay: Antibacterial activity against Pseudomonas aeruginosa by disk diffusion method; format: functional
Klebsiella pneumoniae = assay: Antibacterial activity against Klebsiella pneumoniae by disk diffusion method; format: functional

Compound | inhibition at 20 µg/mL (Aspergillus niger [1]) [%] | IC50 (MCF7 [2]) [µM] | inhibition zone (IZ) (Staphylococcus aureus) [mm] | inhibition at 20 µg/mL (Aspergillus flavus [3]) [%] | inhibition at 100 µg/mL (Aspergillus niger [4]) [%] | inhibition at 50 µg/mL (Aspergillus niger [5]) [%] | inhibition at 10 µg/mL (Aspergillus flavus [6]) [%] | inhibition at 100 µg/mL (Aspergillus flavus [7]) [%] | Activity (MCF7 [8]) | inhibition at 50 µg/mL (Aspergillus flavus [9]) [%] | inhibition at 10 µg/mL (Aspergillus niger [10]) [%] | inhibition zone (IZ) (Pseudomonas aeruginosa) [mm] | inhibition zone (IZ) (Klebsiella pneumoniae) [mm]
O=C1Nc2cc3c(-c4ccccc4)c(-c4ccccc4)n(-c4ccc(Cl)cc4)c(=O)c3cc2C(c2ccccc2)N1 (centres undefined) | 70 | 25.6 | 10 | 76.7 | 90 | 80 | 60 | 93.3 | Toxic | 83.3 | 50 | 10 | 10
O=C1NCc2cc3c(=O)n(-c4ccccc4)c(-c4ccccc4)c(-c4ccccc4)c3cc2N1 | ≤ 25 | 8.5 | 6 | ≤ 25 | ≤ 25 | ≤ 25 | ≤ 25 | ≤ 25 | – | ≤ 25 | ≤ 25 | 6 | 6
O=C1Nc2cc3c(-c4ccccc4)c(-c4ccccc4)n(-c4ccccc4)c(=O)c3cc2C(c2ccccc2)N1 (centres undefined) | 75 | 4.4 | >14 | 60 | 95 | 90 | 53.3 | 86.7 | Toxic | 73.3 | 60 | 10 | 6
O=C1NCc2cc3c(=O)n(-c4ccc(Cl)cc4)c(-c4ccccc4)c(-c4ccccc4)c3cc2N1 | ≤ 25 | 3.7 | 6 | ≤ 25 | ≤ 25 | ≤ 25 | ≤ 25 | ≤ 25 | Not toxic | ≤ 25 | ≤ 25 | 6 | 6
COc1ccc(-n2c(-c3ccccc3)c(-c3ccccc3)c3cc4c(cc3c2=O)C(c2ccccc2)NC(=O)N4)cc1 (centres undefined) | ≤ 25 | 11.4 | 6 | ≤ 25 | ≤ 25 | ≤ 25 | ≤ 25 | ≤ 25 | Not toxic | ≤ 25 | ≤ 25 | 6 | 6
